Results published in ChEMBL document CHEMBL1201862, “PubChem BioAssay data set” (2004).
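A five-concentration, 48-hour dose response in 96-well plates underlies each endpoint, interpolated linearly between surrounding concentrations. The concentration for 50% growth inhibition is given as GI50.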 Activity calls are given as the source filed them. Rule as the data show it: active = GI50 up to about 1.1 µM and inactive = higher.

What was measured:
Test in all cases: growth of human tumour cells (NCI), 48 h
[1] = test system: A498
[2] = test system: CAKI-1
[3] = test system: HCT-15
[4] = test system: HOP-62
[5] = test system: HOP-92
[6] = test system: IGROV-1
[7] = test system: KM12
[8] = test system: NCI/ADR-RES
[9] = test system: OVCAR-4
[10] = test system: SF-295
[11] = test system: SF-539
[12] = test system: SK-MEL-28
[13] = test system: SK-MEL-5
[14] = test system: SNB-19
[15] = test system: SNB-75
[16] = test system: TK-10
[17] = test system: U-251
[18] = test system: DMS-114
[19] = test system: M19-MEL
[20] = test system: XF498

SMILES	GI50 [1]	GI50 [2]	GI50 [3]	GI50 [4]	GI50 [5]	GI50 [6]	GI50 [7]	GI50 [8]	GI50 [9]	GI50 [10]	GI50 [11]	GI50 [12]	GI50 [13]	GI50 [14]	GI50 [15]	GI50 [16]	GI50 [17]	GI50 [18]	GI50 [19]	GI50 [20]
C/C(=C\c1ccc(Cl)cc1)C(C)(C)C(=O)O	> 100 µM (inactive)	> 100 µM (inactive)	> 100 µM	> 100 µM (inactive)	> 100 µM (inactive)	> 100 µM (inactive)	> 100 µM (inactive)	> 100 µM (inactive)	> 100 µM (inactive)	> 100 µM (inactive)	> 100 µM (inactive)	> 100 µM (inactive)	> 100 µM (inactive)	> 100 µM (inactive)	> 100 µM (inactive)	> 100 µM (inactive)	> 100 µM (inactive)	–	–	–
CN(CCO)CCC1COc2ccccc2O1 (stereo not drawn)	> 10 µM (inactive)	> 10 µM (inactive)	> 10 µM	> 10 µM (inactive)	–	> 10 µM (inactive)	> 10 µM (inactive)	> 10 µM (inactive)	> 10 µM (inactive)	> 10 µM (inactive)	> 10 µM (inactive)	> 10 µM (inactive)	> 10 µM (inactive)	> 10 µM (inactive)	> 10 µM (inactive)	> 10 µM (inactive)	> 10 µM (inactive)	–	–	–
N=C(N)N/N=C\c1c(-c2cccc([N+](=O)[O-])c2)nc2sccn12	25 µM (inactive)	17.4 µM (inactive)	9.68 µM	3.54 µM (inactive)	5.93 µM (inactive)	15 µM (inactive)	1.02 µM (active)	> 100 µM (inactive)	1.76 µM (inactive)	2.64 µM (inactive)	17.9 µM (inactive)	2.04 µM (inactive)	14.6 µM (inactive)	2.09 µM (inactive)	–	2.47 µM (inactive)	2.79 µM (inactive)	–	–	–
COc1ccc(-c2nnc3c4ccccc4sn23)cc1	–	–	6.28 µM	5.69 µM (inactive)	34.9 µM (inactive)	19.8 µM (inactive)	19.3 µM (inactive)	–	47 µM (inactive)	–	32.7 µM (inactive)	22.8 µM (inactive)	34.4 µM (inactive)	29.9 µM (inactive)	10.2 µM (inactive)	> 100 µM (inactive)	23.4 µM (inactive)	17.1 µM (inactive)	22.5 µM (inactive)	–
N#C/C(=C\c1ccc(Br)cc1)c1nc(-c2cc3ccccc3oc2=O)cs1	–	48.4 µM (inactive)	32.1 µM	8.73 µM (inactive)	11 µM (inactive)	12.3 µM (inactive)	19.1 µM (inactive)	11.9 µM (inactive)	17.2 µM (inactive)	18.5 µM (inactive)	14 µM (inactive)	28.2 µM (inactive)	21.8 µM (inactive)	10.7 µM (inactive)	7.14 µM (inactive)	10.2 µM (inactive)	9.93 µM (inactive)	–	–	–
CC1=C2C(=C[C@H]3[C@]4(C)CCCC(C)(C)[C@H]4CC[C@]34O[C@H]24)OC1=O	> 100 µM (inactive)	–	> 100 µM	> 100 µM (inactive)	> 100 µM (inactive)	> 100 µM (inactive)	> 100 µM (inactive)	> 100 µM (inactive)	> 100 µM (inactive)	> 100 µM (inactive)	–	> 100 µM (inactive)	> 100 µM (inactive)	> 100 µM (inactive)	> 100 µM (inactive)	> 100 µM (inactive)	> 100 µM (inactive)	–	–	–
CC(C)CCC1CC2C(=O)N(c3ccccc3)C(=O)C2c2[nH]c3ccccc3c21 (stereo not drawn)	1.84 µM (inactive)	–	2.71 µM	–	–	13.4 µM (inactive)	1.28 µM (inactive)	–	4.76 µM (inactive)	0.509 µM (active)	0.711 µM (active)	4.68 µM (inactive)	0.347 µM (active)	1.24 µM (inactive)	2.22 µM (inactive)	4.53 µM (inactive)	0.455 µM (active)	0.6 µM (active)	5.2 µM (inactive)	0.206 µM (active)
CC1(C)CNC(=O)C2(/C=N/C(C)(C)CNC(=O)C3(/C=N/1)CCCO3)CCCO2 (stereo not drawn)	> 10 µM (inactive)	> 10 µM (inactive)	> 10 µM	> 10 µM (inactive)	> 10 µM (inactive)	> 10 µM (inactive)	> 10 µM (inactive)	> 10 µM (inactive)	> 10 µM (inactive)	> 10 µM (inactive)	> 10 µM (inactive)	> 10 µM (inactive)	> 10 µM (inactive)	> 10 µM (inactive)	> 10 µM (inactive)	> 10 µM (inactive)	> 10 µM (inactive)	–	–	–
CC(C)(C)[Si](C)(C)OCC1CCC(n2cnc3c(N)ncnc32)O1 (stereo not drawn)	> 100 µM (inactive)	> 100 µM (inactive)	72.1 µM	95.7 µM (inactive)	> 100 µM (inactive)	53.8 µM (inactive)	39.1 µM (inactive)	–	> 100 µM (inactive)	81.8 µM (inactive)	–	72.8 µM (inactive)	17.1 µM (inactive)	> 100 µM (inactive)	67.8 µM (inactive)	> 100 µM (inactive)	> 100 µM (inactive)	–	–	–
N#CSCC1COc2ccccc2O1 (stereo not drawn)	> 10 µM (inactive)	> 10 µM (inactive)	9.89 µM	> 10 µM (inactive)	–	> 10 µM (inactive)	> 10 µM (inactive)	> 10 µM (inactive)	> 10 µM (inactive)	> 10 µM (inactive)	> 10 µM (inactive)	> 10 µM (inactive)	6.87 µM (inactive)	> 10 µM (inactive)	> 10 µM (inactive)	> 10 µM (inactive)	> 10 µM (inactive)	–	–	–
Brc1ccc(C2CC(c3cccc4ccccc34)=Nc3ccccc3S2)cc1 (stereo not drawn)	> 100 µM (inactive)	> 100 µM (inactive)	35.3 µM	> 100 µM (inactive)	> 100 µM (inactive)	> 100 µM (inactive)	70.5 µM (inactive)	–	44.6 µM (inactive)	37.3 µM (inactive)	> 100 µM (inactive)	> 100 µM (inactive)	> 100 µM (inactive)	> 100 µM (inactive)	> 100 µM (inactive)	> 100 µM (inactive)	30.2 µM (inactive)	–	40.2 µM (inactive)	> 100 µM (inactive)
CC(=O)N(CCN1C(=O)c2ccccc2C1=O)CCN1C(=O)c2ccccc2C1=O	> 100 µM (inactive)	> 100 µM (inactive)	> 100 µM	> 100 µM (inactive)	> 100 µM (inactive)	–	> 100 µM (inactive)	–	> 100 µM (inactive)	> 100 µM (inactive)	–	> 100 µM (inactive)	> 100 µM (inactive)	> 100 µM (inactive)	> 100 µM (inactive)	> 100 µM (inactive)	> 100 µM (inactive)	> 100 µM (inactive)	> 100 µM (inactive)	> 100 µM (inactive)
COc1c(Cl)cc(S(=O)O)cc1Cl	> 100 µM (inactive)	–	–	> 100 µM (inactive)	–	–	> 100 µM (inactive)	–	> 100 µM (inactive)	–	> 100 µM (inactive)	> 100 µM (inactive)	–	> 100 µM (inactive)	> 100 µM (inactive)	> 100 µM (inactive)	> 100 µM (inactive)	> 100 µM (inactive)	> 100 µM (inactive)	> 100 µM (inactive)
CC(NNC(=O)c1cc[n+]([BH2-]C#N)cc1)c1ccc(F)cc1 (stereo not drawn)	> 100 µM (inactive)	> 100 µM (inactive)	> 100 µM	> 100 µM (inactive)	> 100 µM (inactive)	> 100 µM (inactive)	> 100 µM (inactive)	> 100 µM (inactive)	> 100 µM (inactive)	> 100 µM (inactive)	> 100 µM (inactive)	> 100 µM (inactive)	> 100 µM (inactive)	> 100 µM (inactive)	> 100 µM (inactive)	> 100 µM (inactive)	> 100 µM (inactive)	–	–	–
COc1cc(C2c3[nH]c4ccccc4c3[C@@H](Nc3ccc(F)cc3)[C@H]3COC(=O)N23)cc(OC)c1O (stereo partly drawn)	2.13 µM (inactive)	0.828 µM (active)	1.66 µM	1.01 µM (active)	2.26 µM (inactive)	1.32 µM (inactive)	1.91 µM (inactive)	8.13 µM (inactive)	2.55 µM (inactive)	0.794 µM (active)	1.26 µM (inactive)	2.01 µM (inactive)	1.14 µM (inactive)	1.26 µM (inactive)	1.69 µM (inactive)	1.97 µM (inactive)	1.45 µM (inactive)	–	–	–
COc1ccc([I+]c2ccc(OC)cc2)cc1	> 100 µM (inactive)	> 100 µM (inactive)	> 22.2 µM	12.1 µM (inactive)	> 100 µM (inactive)	> 66.8 µM (inactive)	28.9 µM (inactive)	> 100 µM (inactive)	> 75.2 µM (inactive)	30 µM (inactive)	> 78.3 µM (inactive)	73.6 µM (inactive)	5.75 µM (inactive)	96.8 µM (inactive)	28.9 µM (inactive)	> 100 µM (inactive)	34 µM (inactive)	–	–	–
COc1cc(C(C)c2cc3c(cc2OCCO)OCO3)cc(OC)c1OC (stereo not drawn)	–	5.11 µM (inactive)	0.824 µM	1.74 µM (inactive)	–	0.832 µM (active)	–	–	45.3 µM (inactive)	0.413 µM (active)	1.6 µM (inactive)	–	0.667 µM (active)	3.93 µM (inactive)	1.2 µM (inactive)	18.3 µM (inactive)	2.48 µM (inactive)	0.562 µM (active)	1.66 µM (inactive)	< 0.01 µM (active)
